Results on 1 substance are retold here after US20120053144A1, “Cobalamin Taxane Bioconjugates For Treating Eye Disease” (Osiris Therapeutics, Inc., priority 2009, published 2012).

The assay has as its system choroidal neovascularization. As to the kind of experiment: Choroidal neovascularization model (argon laser scarring, fluorescein leakage scoring). The assay is classed as in vivo, rats. The conditions noted are these: rat eye, laser-induced, treated on day 0. As for the experimental part:
Groups of rats were neovascularized by argon laser scarring on an eye. At the same time (day 0), the eye was immediately treated with the cobalamin-paclitaxel bioconjugate (CT-101) prepared in accordance with Example 1. Two concentrations, one higher and one lower, were tested. The treatment regimen also included a vehicle and KENACORT® RETARD (4% triamcinolone acetonide), as a positive control. The treated eyes were evaluated for inhibition of neovascularization on days 7, 14 and 21 by infusing the eye with fluorescein and scoring the leakage from each spot. The leakage of fluorescein on the photographies of the angiograms from each spot were evaluated by two examiners using an HRA (Heidelberg's Retinal Angiograph) in a masked fashion and graded as follows:
Score 1: slightly stained;
Score 2: moderate stained;
Score 3: strongly stained.

As to “B12-5′-OCONH(CH2)5CO-Phe-Lys-PABC-7-Taxol [CT-101]”, the “inhibition of neovascularization (fluorescein leakage score)” value reads like this: (Day 14, both concentrations (higher and lower)) “measurable effect”; (effect over 7 days relative to vehicle and positive control) “marked angiogenic effect relative to the vehicle over 7 days, and was comparable in effect to the positive control”.
